In ChEMBL document CHEMBL1201862, “PubChem BioAssay data set” (2004):
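Cultured in 96-well plates, cells were exposed to test compound for 48 hours across five concentrations. GI50 = concentration required for 50% inhibition of growth.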 Calls of active or inactive are those of the source. Rule as the data show it: active = GI50 up to about 1.1 µM and inactive = higher.

Experiments:
Test in all cases: growth of human tumour cells (NCI), 48 h
IGROV-1 = tested on: IGROV-1
OVCAR-8 = tested on: OVCAR-8
SNB-19 = tested on: SNB-19
UO-31 = tested on: UO-31
UACC-257 = tested on: UACC-257
OVCAR-5 = tested on: OVCAR-5
UACC-62 = tested on: UACC-62
SNB-75 = tested on: SNB-75
M14 = tested on: M14
MDA-MB-231 = tested on: MDA-MB-231
DU-145 = tested on: DU-145
NCI-H226 = tested on: NCI-H226
COLO 205 = tested on: COLO 205
HOP-62 = tested on: HOP-62
SF-268 = tested on: SF-268
NCI-H522 = tested on: NCI-H522
KM12 = tested on: KM12
TK-10 = tested on: TK-10
SK-MEL-5 = tested on: SK-MEL-5

SMILES | GI50 (IGROV-1) | GI50 (OVCAR-8) | GI50 (SNB-19) | GI50 (UO-31) | GI50 (UACC-257) | GI50 (OVCAR-5) | GI50 (UACC-62) | GI50 (SNB-75) | GI50 (M14) | GI50 (MDA-MB-231) | GI50 (DU-145) | GI50 (NCI-H226) | GI50 (COLO 205) | GI50 (HOP-62) | GI50 (SF-268) | GI50 (NCI-H522) | GI50 (KM12) | GI50 (TK-10) | GI50 (SK-MEL-5)
Cc1cc(C#N)c(Nc2ccccc2[N+](=O)[O-])s1 | 13.8 µM (inactive) | 31 µM (inactive) | 41 µM (inactive) | 39.7 µM (inactive) | 68.5 µM (inactive) | 14.2 µM (inactive) | 54.2 µM (inactive) | 15.4 µM (inactive) | 32.8 µM (inactive) | 24.7 µM (inactive) | 17.7 µM (inactive) | 51.1 µM (inactive) | 29.6 µM (inactive) | 24.3 µM (inactive) | 51.5 µM (inactive) | 19.8 µM (inactive) | 36.1 µM (inactive) | – | –
CCCC(=O)OC[n+]1cccc(-c2c(COC(=O)NC(C)C)c(COC(=O)NC(C)C)c3n2CCC3)c1 | > 46.3 µM (inactive) | 55.7 µM (inactive) | > 100 µM (inactive) | 38.7 µM (inactive) | > 100 µM (inactive) | 97.7 µM (inactive) | 20.1 µM (inactive) | 71.3 µM (inactive) | 50.9 µM (inactive) | > 74.8 µM (inactive) | 43.2 µM (inactive) | > 91 µM (inactive) | 73.3 µM (inactive) | 49.8 µM (inactive) | 32 µM (inactive) | 30.4 µM (inactive) | > 100 µM (inactive) | > 72.4 µM (inactive) | 69.7 µM (inactive)
COc1cc(CNc2nc3ccccc3nc2-c2cccs2)cc(OC)c1OC | 20.4 µM (inactive) | 14.3 µM (inactive) | – | 5.09 µM (inactive) | 34 µM (inactive) | 4.19 µM (inactive) | 13.7 µM (inactive) | > 100 µM (inactive) | – | 17.6 µM (inactive) | 44.4 µM (inactive) | 29.5 µM (inactive) | 27.4 µM (inactive) | 21.4 µM (inactive) | > 100 µM (inactive) | 14 µM (inactive) | 31.4 µM (inactive) | 33.8 µM (inactive) | 12.5 µM (inactive)
CC1=C(C)C(=O)C(C2=CC(=O)C=CC2=O)=C(C2=CC(=O)C=CC2=O)C1=O | 21.4 µM (inactive) | 36.6 µM (inactive) | > 100 µM (inactive) | 41.7 µM (inactive) | > 67.1 µM (inactive) | > 58.9 µM (inactive) | 39.6 µM (inactive) | > 100 µM (inactive) | > 76.9 µM (inactive) | 18.4 µM (inactive) | > 100 µM (inactive) | > 100 µM (inactive) | 56 µM (inactive) | > 100 µM (inactive) | > 74.6 µM (inactive) | 21.2 µM (inactive) | 64.4 µM (inactive) | > 100 µM (inactive) | 21.3 µM (inactive)
Nc1ccc(S(=O)(=O)c2ccc(/N=[N+](\[O-])c3ccc(S(=O)(=O)c4ccc(N)cc4)cc3)cc2)cc1 | > 92.9 µM (inactive) | 41.2 µM (inactive) | 44.4 µM (inactive) | > 100 µM (inactive) | > 91.8 µM (inactive) | > 100 µM (inactive) | > 50 µM (inactive) | 8.02 µM (inactive) | 99.3 µM (inactive) | 35.8 µM (inactive) | 81.7 µM (inactive) | 14.6 µM (inactive) | > 100 µM (inactive) | 20.4 µM (inactive) | 15 µM (inactive) | 17.9 µM (inactive) | > 100 µM (inactive) | > 44.1 µM (inactive) | 44 µM (inactive)
COC(=O)C1=C2Nc3ccccc3C23CCN2C(O)C4(CC5CC67CCOC6CCN6CCC8(c9cccc(OC)c9N(C4)C58O)C67)C4OCCC4(C1)C23 (stereo not drawn) | 87.7 µM (inactive) | 23.5 µM (inactive) | 45.7 µM (inactive) | > 100 µM (inactive) | > 100 µM (inactive) | > 100 µM (inactive) | > 100 µM (inactive) | 23.5 µM (inactive) | 71.9 µM (inactive) | 15.6 µM (inactive) | 36.3 µM (inactive) | 87.9 µM (inactive) | > 100 µM (inactive) | 44.2 µM (inactive) | 26.1 µM (inactive) | 36.4 µM (inactive) | 78.9 µM (inactive) | > 100 µM (inactive) | 49.5 µM (inactive)
O=C1c2cc3c(cc2NC(c2ccccc2F)C1O)OCO3 (stereo not drawn) | 13.5 µM (inactive) | 28.2 µM (inactive) | 21.3 µM (inactive) | 27.7 µM (inactive) | 22.9 µM (inactive) | 22.1 µM (inactive) | 10.9 µM (inactive) | 16.3 µM (inactive) | 10.4 µM (inactive) | 20.2 µM (inactive) | 35 µM (inactive) | 20.9 µM (inactive) | 5.3 µM (inactive) | 22.7 µM (inactive) | 19.4 µM (inactive) | 10.5 µM (inactive) | 6.65 µM (inactive) | 21 µM (inactive) | 4.86 µM (inactive)
O=C(/C=C/c1ccc(-c2ccccc2[N+](=O)[O-])o1)NCc1ccc(C(=O)NCCc2ccccc2)cc1 | > 100 µM (inactive) | > 100 µM (inactive) | > 100 µM (inactive) | > 100 µM (inactive) | 46.7 µM (inactive) | > 100 µM (inactive) | 6.4 µM (inactive) | > 100 µM (inactive) | > 100 µM (inactive) | > 100 µM (inactive) | > 100 µM (inactive) | > 100 µM (inactive) | > 100 µM (inactive) | > 100 µM (inactive) | > 100 µM (inactive) | > 100 µM (inactive) | > 100 µM (inactive) | > 100 µM (inactive) | > 100 µM (inactive)
O=C1CC(NCCCNC2CC(=O)c3c(Br)sc(Br)c32)c2c(Br)sc(Br)c21 (stereo not drawn) | 1.71 µM (inactive) | 1.66 µM (inactive) | 2.45 µM (inactive) | 1.42 µM (inactive) | 2.92 µM (inactive) | 2.21 µM (inactive) | 1.62 µM (inactive) | 2.48 µM (inactive) | 2 µM (inactive) | 2.19 µM (inactive) | 1.66 µM (inactive) | 3.78 µM (inactive) | 2.22 µM (inactive) | 2.84 µM (inactive) | 2.54 µM (inactive) | 1.25 µM (inactive) | 1.49 µM (inactive) | 2.06 µM (inactive) | 2.04 µM (inactive)
COC(C/C(=C/CO[Si](C(C)C)(C(C)C)C(C)C)C(=O)Nc1ccccc1I)OC | 2.99 µM (inactive) | 33 µM (inactive) | 18.4 µM (inactive) | 36.6 µM (inactive) | 32.6 µM (inactive) | 24 µM (inactive) | 53.5 µM (inactive) | 88.1 µM (inactive) | 29.9 µM (inactive) | 12.5 µM (inactive) | 13 µM (inactive) | 28.5 µM (inactive) | 9.75 µM (inactive) | 38.2 µM (inactive) | 46.9 µM (inactive) | 1.53 µM (inactive) | 31 µM (inactive) | 63.8 µM (inactive) | 26.5 µM (inactive)
O=CN1CCN(C(=O)c2ccc(Cl)c(Cl)c2)C1=S | 15.1 µM (inactive) | 15 µM (inactive) | 17.5 µM (inactive) | – | 17.7 µM (inactive) | 16.9 µM (inactive) | 16 µM (inactive) | 17.5 µM (inactive) | 16.8 µM (inactive) | 14.6 µM (inactive) | 15.7 µM (inactive) | 20.7 µM (inactive) | 20 µM (inactive) | 16.1 µM (inactive) | 22.2 µM (inactive) | 4.93 µM (inactive) | 15.7 µM (inactive) | 16.5 µM (inactive) | –
OCSc1nn(CO)c(=S)s1 | 17.7 µM (inactive) | 10.5 µM (inactive) | 25.8 µM (inactive) | – | 23 µM (inactive) | 48.1 µM (inactive) | 17.5 µM (inactive) | 24.4 µM (inactive) | 20.1 µM (inactive) | 28.1 µM (inactive) | 23.8 µM (inactive) | 31.6 µM (inactive) | 28.1 µM (inactive) | 21.8 µM (inactive) | 21.6 µM (inactive) | 17 µM (inactive) | 18.7 µM (inactive) | 73.5 µM (inactive) | 31.8 µM (inactive)
CCCCc1c(OC)cc(O)c2c1C(=O)c1[nH]c(C(=O)O)c(O)c(=O)c1C2=O | 8.43 µM (inactive) | 2.27 µM (inactive) | 2.25 µM (inactive) | 1.73 µM (inactive) | 10.4 µM (inactive) | 4.9 µM (inactive) | 2.28 µM (inactive) | 3.26 µM (inactive) | 4.83 µM (inactive) | 0.847 µM (active) | 63.1 µM (inactive) | 5.57 µM (inactive) | 22 µM (inactive) | 1.57 µM (inactive) | 1.95 µM (inactive) | 2.12 µM (inactive) | 29.4 µM (inactive) | 13.9 µM (inactive) | –
C=CC1(C)CCC2C(=CCC3C2(C)CC(O)C(O)C3(C)COC2OC(CO)C(O)C(O)C2O)C1 (stereo not drawn) | > 100 µM (inactive) | > 100 µM (inactive) | 44.8 µM (inactive) | > 100 µM (inactive) | > 100 µM (inactive) | > 100 µM (inactive) | > 100 µM (inactive) | > 100 µM (inactive) | > 100 µM (inactive) | > 100 µM (inactive) | > 100 µM (inactive) | > 100 µM (inactive) | > 100 µM (inactive) | – | > 100 µM (inactive) | > 100 µM (inactive) | > 100 µM (inactive) | > 100 µM (inactive) | > 100 µM (inactive)
O=C(Nc1ccccc1)N1CCNC1=S | > 100 µM (inactive) | > 100 µM (inactive) | – | 57.3 µM (inactive) | – | > 100 µM (inactive) | > 100 µM (inactive) | 28.4 µM (inactive) | > 100 µM (inactive) | > 100 µM (inactive) | > 100 µM (inactive) | 87.5 µM (inactive) | > 100 µM (inactive) | > 100 µM (inactive) | > 100 µM (inactive) | > 100 µM (inactive) | > 100 µM (inactive) | – | > 100 µM (inactive)
